Assay type in all cases: biochemical
One test concerns the target T1, 12-lipoxygenase (Homo sapiens, UniProt P18054).
T1 construct: 12-lipoxygenase obtained from human platelets; from tissue; host or cells: human platelets
T1 sequence (P18054 1-663): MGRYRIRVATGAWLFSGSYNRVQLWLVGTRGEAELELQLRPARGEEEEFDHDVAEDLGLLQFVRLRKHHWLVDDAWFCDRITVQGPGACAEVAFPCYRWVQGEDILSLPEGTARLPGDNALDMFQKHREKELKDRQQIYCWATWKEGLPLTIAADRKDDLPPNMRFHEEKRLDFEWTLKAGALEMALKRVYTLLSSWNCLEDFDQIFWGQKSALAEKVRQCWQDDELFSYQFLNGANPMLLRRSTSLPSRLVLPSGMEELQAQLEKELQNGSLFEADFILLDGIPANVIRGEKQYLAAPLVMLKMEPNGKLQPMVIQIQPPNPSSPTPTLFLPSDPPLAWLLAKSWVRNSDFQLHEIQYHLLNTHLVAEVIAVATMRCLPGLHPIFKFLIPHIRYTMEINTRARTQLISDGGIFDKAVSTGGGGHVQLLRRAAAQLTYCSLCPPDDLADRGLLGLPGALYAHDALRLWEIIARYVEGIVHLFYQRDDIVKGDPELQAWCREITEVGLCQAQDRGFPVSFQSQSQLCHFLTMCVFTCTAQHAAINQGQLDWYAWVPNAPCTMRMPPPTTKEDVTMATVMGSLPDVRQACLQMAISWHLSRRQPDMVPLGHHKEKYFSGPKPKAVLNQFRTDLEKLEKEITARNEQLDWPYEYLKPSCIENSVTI
The test is described as follows: 12-lipoxygenase inhibition, enzyme obtained from human platelets. The settings on record: read-out: Percent Inhibition, 12-Lipoxygenase. The method, then:
(§1) The compounds of this invention are potent inhibitors of 5-, 12-, and 15-lipoxygenases. An assay to determine 5-lipoxygenase activity was performed in incubations containing various concentrations of the test compound and the 20,000 g supernatant from 7.5 million homogenized RBL-1 cells. Reactions were initiated by addition of radiolabeled arachidonic acid and terminated by acidification and ether extraction. Reaction products were separated from nonconverted substrate by thin layer chromatography and measured by liquid scintillation spectroscopy. Inhibition of 5-lipoxygenase activity was calculated as the 50% intercept from linear regression analysis of percentage inhibition versus log concentration plots.
(§2) Inhibitory activities of the compounds of this invention against 12- and 15-lipoxygenase can be determined in the foregoing assay in which 12-lipoxygenase obtained from human platelets, or 15-lipoxygenase obtained from soybean, is substituted for the […] containing cell supernatant fraction.

In a further test the target is T2, 5-lipoxygenase (Rattus norvegicus, UniProt P12527).
T2 construct: 20,000 g supernatant from 7.5 million homogenized RBL-1 cells; endogenous in cells; host or cells: RBL-1 cells, 20,000 g supernatant of homogenate
T2 sequence (P12527 1-673): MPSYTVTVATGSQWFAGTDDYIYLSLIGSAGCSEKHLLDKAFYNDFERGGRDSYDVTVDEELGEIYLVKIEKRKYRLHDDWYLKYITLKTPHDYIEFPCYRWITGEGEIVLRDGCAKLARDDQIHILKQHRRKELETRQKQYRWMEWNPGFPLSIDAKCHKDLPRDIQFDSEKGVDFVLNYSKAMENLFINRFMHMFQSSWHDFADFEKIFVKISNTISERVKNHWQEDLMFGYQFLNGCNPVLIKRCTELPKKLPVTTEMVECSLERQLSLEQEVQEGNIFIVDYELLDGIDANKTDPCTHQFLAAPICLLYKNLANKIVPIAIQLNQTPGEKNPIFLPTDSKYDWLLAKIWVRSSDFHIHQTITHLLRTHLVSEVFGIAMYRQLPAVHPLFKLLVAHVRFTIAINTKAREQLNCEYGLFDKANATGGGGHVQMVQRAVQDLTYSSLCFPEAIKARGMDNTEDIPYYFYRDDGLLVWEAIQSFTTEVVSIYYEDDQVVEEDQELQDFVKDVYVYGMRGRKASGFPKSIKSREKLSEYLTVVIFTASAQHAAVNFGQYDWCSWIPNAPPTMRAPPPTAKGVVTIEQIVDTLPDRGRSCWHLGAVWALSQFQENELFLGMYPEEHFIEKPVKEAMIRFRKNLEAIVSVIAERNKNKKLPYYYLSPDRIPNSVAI
The test is described as follows: 5-lipoxygenase inhibition, 20,000 g supernatant from homogenized RBL-1 cells, radiolabeled arachidonic acid. The settings on record: 5-lipoxygenase, RBL-1 supernatant; 50% intercept from linear regression of % inhibition vs log concentration. The method, then:
as §1

The target in the next test is T3, 15-lipoxygenase (Glycine max, UniProt P08170).
T3 construct: 15-lipoxygenase obtained from soybean; from tissue; host or cells: soybean
T3 sequence (P08170 1-839): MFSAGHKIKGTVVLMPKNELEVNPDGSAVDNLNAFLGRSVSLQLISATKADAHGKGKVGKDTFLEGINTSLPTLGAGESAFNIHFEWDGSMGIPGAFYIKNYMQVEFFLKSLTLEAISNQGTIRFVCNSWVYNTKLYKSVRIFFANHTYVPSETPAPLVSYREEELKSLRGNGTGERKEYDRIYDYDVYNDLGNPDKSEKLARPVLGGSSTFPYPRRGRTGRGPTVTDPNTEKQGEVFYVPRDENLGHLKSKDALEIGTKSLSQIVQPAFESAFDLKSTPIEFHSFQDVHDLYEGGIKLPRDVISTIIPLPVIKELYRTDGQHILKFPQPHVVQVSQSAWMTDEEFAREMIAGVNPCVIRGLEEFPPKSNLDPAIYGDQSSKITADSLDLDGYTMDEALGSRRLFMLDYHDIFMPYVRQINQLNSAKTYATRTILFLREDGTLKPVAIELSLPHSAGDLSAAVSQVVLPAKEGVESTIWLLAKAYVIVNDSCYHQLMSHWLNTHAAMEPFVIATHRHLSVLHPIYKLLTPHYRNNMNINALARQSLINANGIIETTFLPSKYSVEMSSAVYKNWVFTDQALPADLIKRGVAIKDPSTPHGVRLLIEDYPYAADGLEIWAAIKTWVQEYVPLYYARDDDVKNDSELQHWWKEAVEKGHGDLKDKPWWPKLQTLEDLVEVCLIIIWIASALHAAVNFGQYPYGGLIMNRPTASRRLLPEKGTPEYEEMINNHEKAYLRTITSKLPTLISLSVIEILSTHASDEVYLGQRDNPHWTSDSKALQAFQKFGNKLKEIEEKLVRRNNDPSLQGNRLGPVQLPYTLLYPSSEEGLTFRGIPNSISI
The test is described as follows: 15-lipoxygenase inhibition, enzyme obtained from soybean. The conditions noted are these: read-out: Percent Inhibition, 15-lipoxygenase. How it is done:
as §1, §2

`COc1ccc2ccn(O)c(=O)c2c1` [Example 34]: the inhibition at 10 µM on 12-lipoxygenase (10 uM) was 90%; on 15-lipoxygenase (10 uM) it was 20%. Besides, the inhibition at 100 µM at 12-lipoxygenase (100 uM) is 98%; at 15-lipoxygenase (100 uM), 45%. The compound also came in with an IC50 against 5-lipoxygenase of 2500 nM.

As a reminder, the inhibition is how much of the control response was suppressed. Usually IC50 stands for the midpoint of a concentration-inhibition curve. A low value points to greater potency in that assay.

These data come from US4761403A, “Lipoxygenase inhibiting compounds” (Abbott Laboratories, priority 1986, dated 1988).
